As a reminder, the melting point is the temperature, or range, at which the solid turns liquid.

We go through 91 compounds from a melting point compilation (Tetko et al.; mined from patent text by program, amines drawn as free bases though some values may be those of a salt).

Molecules are shown by their SMILES.

As to `CON=CCCCn1c(C)nc2c(N)nc3ccccc3c21`, the melting point lay within 153 to 155 °C.

For the compound `CCOC(=O)c1csc(S)n1`, the melting point lay within 120 to 121 °C.

In turn, `CC(C)N1CCC2(CC1)CSC1=C(O2)c2ccccc2C(=O)C1=O` returned a melting point of 197 to 198 °C.

Turning to `Cc1cc(Br)cnc1CCCNc1ncc(Cc2cccnc2)cc1O`, the melting point was in the range of 141 to 143 °C.

In turn, `CSc1ccc(C2=NNC(C(=O)OC(C)(C)C)S2)cc1` (stereo unspecified) yielded a melting point of 71 to 72 °C.

`NC(=O)COc1cccc(CCNS(=O)(=O)c2ccc(Br)cc2)c1` had a melting point of 115 to 116 °C.

In the case of `C[C@@H](NCc1ccc(O)cc1)c1cccc2ccccc12`, the melting point lay within 132 to 133 °C.

With `CC[C@H](C)[C@H](NC(=O)OCc1ccccn1)C(=O)NC(Cc1ccccc1)C(O)C(O)C(Cc1ccccc1)NC(=O)[C@@H](NC(=O)OCc1ccccn1)[C@@H](C)CC` (stereo partly specified), the melting point lay within 220 to 221 °C.

`CC(c1oc2ccccc2c(=O)c1-c1cccc(F)c1)n1nc(-c2ccc(C=O)o2)c2c(N)ncnc21` (stereo unspecified) gave a melting point of 215 to 217 °C.

The compound `COc1cc(Nc2c(C#N)cnc3cc(I)sc23)cc(OC)c1OC` gave a melting point of 254 to 256 °C.

`CCC(C(O)c1ccc(Cl)cc1)n1ncn(-c2ccc(N3CCN(c4ccccn4)CC3)nc2)c1=O` (stereo unspecified) had a melting point of 171 °C.

For `O=C(O)CCCc1ccc(CNC(=O)C2Cc3ccccc3N2S(=O)(=O)c2ccc(-c3cccc(C(F)(F)F)c3)cc2)cc1` (stereo unspecified), the melting point was determined as 75 °C.

`COc1ccc2cc([C@@H]3CCN(C[C@H](O)COc4cccc5[nH]ccc45)[C@@H](C)C3)sc2c1` displayed a melting point of 179 to 182 °C.

The compound `O=Cc1ccc(-c2cccc3cncn23)cc1` yielded a melting point of 144 to 146 °C.

`O=C(NCc1ccccc1)[C@@H]1CCCCN1` had a melting point of 103 to 104 °C.

In turn, `CC1(C)Oc2cc3nonc3cc2C(NC(=O)CCl)C1O` (stereo unspecified) had a melting point of 232 to 234 °C.

The compound `CCOc1cc(OC)c(C(=O)C=Cc2ccc(OC)cc2)c(OP(=O)(O)O)c1` returned a melting point of 85 to 88 °C.

As to `CCc1cnn(CC(=O)O)c1OCCCc1cn(-c2ccc(C(F)(F)F)cn2)nc1C(CC)CC`, the melting point lay in the range of 124 to 125 °C.

Compound `CC(=O)c1ccc2c(c1)OC(C(=O)O)CO2` (stereo unspecified) displayed a melting point of 167 to 168 °C.

Consider `Nc1ccc2oc3c(c2c1)CCC3`, for which the melting point fell in the range of 86.5 to 88.5 °C.

The compound `CCOC(=O)COc1ccccc1C(=O)Nc1ccc(Sc2ccccc2-c2nnn[nH]2)cc1` registered a melting point of 97 to 99 °C.

On to `COc1ccnc(CO)c1OC`, for which the melting point was in the range of 87 to 89 °C.

In turn, `O=C(NC(=S)c1c(Cl)cccc1Cl)Nc1ccc(Cl)c(Cl)c1` registered a melting point of 168 °C.

Turning to `Cn1c2c(c3cccc(C#N)c31)C(=O)NCC2`, the melting point is 230 to 231 °C.

In turn, `CC(C=CC(C)C(C)(C)O)C1CCC2C(=O)CCCC21C` (stereo unspecified) registered a melting point of 101 to 102 °C.

Regarding `O=C(CNC(=O)OCc1ccccc1)NCCCCCCO`, the melting point is 104 to 105 °C.

As to `Nc1ccc2c(c1)CC(N)CC2` (single isomer, unassigned; (+)), the melting point lay within 33 to 34 °C.

`COc1cc(Cl)ccc1C(=O)Nc1ccc(C(=O)N2Cc3cccn3Cc3ccccc32)cc1` showed a melting point of 222 to 224 °C.

Regarding `Cc1noc2cc(F)c(-n3c(=O)cc(C(F)(F)F)n(C)c3=O)cc12`, the melting point was 158 to 159 °C.

`CS(=O)(=O)c1ccc(C2=C(c3ccc4c(c3)OCO4)CCC2)cc1` yielded a melting point of 140 to 141 °C.

Take `CC(O)(C(=O)O)c1ccc(-c2ccccc2)c(F)c1` (stereo unspecified): the melting point lay in the range of 161 to 163 °C.

The compound `OCC1OC(n2cnc3c(NC4CCc5ccccc54)ncnc32)C(O)C1O` (stereo unspecified) returned a melting point of 120 to 122 °C.

`CC(Cc1cccc(O)c1)NCCC(c1ccccc1)c1ccccc1` (stereo unspecified): the melting point is 122 to 124 °C.

In the case of `COC(=O)c1nc(C)c(-c2ccccc2)nc1N`, the melting point stood at 162 °C.

In turn, `COc1ccc(/C=C/c2c(Cl)cncc2Cl)c2c1OCCCO2` returned a melting point of 118 to 120 °C.

Compound `COc1ccc(-c2nc(SCC(C)=O)[nH]c2-c2ccc(OC)cc2)cc1` yielded a melting point of 115 to 118 °C.

Consider `Cc1ccc(-c2cnc(-c3cc(C(F)(F)F)cs3)s2)s1`, for which the melting point was in the range of 131 to 133 °C.

`Nc1cnccc1CNC(=O)C1Cc2ccccc2N1S(=O)(=O)c1ccc(-c2cccc(C(F)(F)F)c2)cc1` (stereo unspecified) had a melting point of 105 to 108 °C.

Consider `O=C(Nc1ccc2c(c1)NCCC2)c1cc2cc(F)ccc2n1Cc1cccc(F)c1`, for which the melting point was in the range of 149 to 151 °C.

Consider `C[C@@H](S)[C@](O)(Cn1ccnc1)c1ccc(F)cc1F`, for which the melting point is 125 to 135 °C.

Consider `COc1cc2cc(-c3ccncc3)oc2cc1OC`, for which the melting point was 227 to 229 °C.

`COC(=O)CCC#Cc1cc(Cl)ccc1NS(=O)(=O)c1cccc(Cl)c1Cl`: the melting point was determined as 64 °C.

The compound `COc1ccc2c(c1)c(CC(=O)OCC(=O)O)c(C)n2C(=O)c1cccc(C(F)(F)F)c1` displayed a melting point of 136 to 138 °C.

The compound `CCN1C(=O)C(C)(C(=O)O)Oc2ccccc21` (stereo unspecified) had a melting point of 164 to 168 °C.

Consider `Nc1nc2ccccc2n1S(=O)(=O)C=Cc1ccccc1`, for which the melting point turned out to be 191 °C.

Compound `CC(C)n1nc(OCc2ccccc2)cc1CO` registered a melting point of 81 to 82 °C.

`CN1CCN(c2cccc(-c3cnn4c(N)c(-c5cccc(Br)c5)cnc34)c2)CC1` came in with a melting point of 195 to 197 °C.

In the case of `O=[N+]([O-])c1c[nH]nc1-c1ccc(Cl)cc1`, the melting point fell in the range of 172 to 174 °C.

In the case of `CCSc1nc2c(C(=O)OCOC)sc(C)c2[nH]1`, the melting point was in the range of 128 to 130 °C.

Compound `CCCc1sc(-c2ccccc2)nc1OC(=O)NC` registered a melting point of 55 to 58 °C.

With `CCOC(=O)c1[nH]c2cc(-c3ccccc3)ccc2c1N`, the melting point is 181 to 183 °C.

For `Cc1c(C)c2c(c(C)c1O)SC(CCCI)O2` (stereo unspecified), the melting point was in the range of 72 to 75 °C.

With `Cc1cccc(C)c1NC(=O)C(C)N1CSCC1=O` (stereo unspecified), the melting point is 153 to 154 °C.

In turn, `NC1CCc2ccccc2N(CC(=O)OCc2ccccc2)C1=O` (stereo unspecified) returned a melting point of 105 to 107 °C.

For `N#CCc1ccc2ncc(C(=O)NCc3ccc(Cl)cc3)c(O)c2c1`, the melting point was in the range of 244 to 246 °C.

`O=C(Nc1ccc(Br)cn1)C1=C(O)c2ccccc2N(c2ccccc2)C1` registered a melting point of 153 to 154 °C.

`CCS(=O)(=O)N[C@H](C(=O)NCCc1cc(Br)c(OCC#Cc2ccc(Cl)cc2)c(OC)c1)C(C)C` showed a melting point of 109 to 111 °C.

`CCOCCN(CC1=CCC(NC(C)=O)(Oc2ccccc2)C=C1)C(=O)C(Cl)Cl` (stereo unspecified) returned a melting point of 114 to 116 °C.

Compound `Cc1cc(C(=O)CCc2cc(-c3ccc(C(F)(F)F)cc3)nn2CC2CC2)ccc1OC(C)(C)C(=O)O` had a melting point of 55 to 60 °C.

In the case of `CC1(C)CC(=O)Nc2c(CCN3CCN(c4nsc5ccc(F)cc45)CC3)cc(F)cc21`, the melting point is 191 °C.

For the compound `CC(=O)ON=C1Cc2ccccc2N(C(N)=O)c2ccccc21`, the melting point lay in the range of 176 to 177 °C.

`CCNC(=O)C1OC(n2cnc3c(NCC(c4ccccc4)c4ccccc4)nc(NC4CCCC4)nc32)C(O)C1O` (stereo unspecified) registered a melting point of 122 to 128 °C.

For `COCCOc1ncc(Cl)c(N)c1Cl`, the melting point was in the range of 92 to 93.5 °C.

For `CCCC(=O)Nc1c(C)c(C)c2c(c1C)C(c1ccc(C(C)C)cc1)CO2` (stereo unspecified), the melting point is 177 to 178 °C.

`O=C1c2cccc3cccc(c23)C(=O)N1CCCO` came in with a melting point of 115 to 118 °C.

With `COc1ccc(-c2nc(CCBr)nc3cc(OC)c(OC)cc23)cc1OC`, the melting point was 166 to 167 °C.

For the compound `CCOC(=O)c1c(C)cc2nc(C(C)C)n(-c3ccccc3Cl)c(=O)c2c1C`, the melting point lay within 115 to 116 °C.

Take `CNc1cc(NC)c(C(=O)NCCC(=O)OC)cc1NC(=O)c1ccc(C#N)cc1`: the melting point was in the range of 208 to 210 °C.

Regarding `COC(=O)C1=C(C)NC(C)=C(C(=O)c2ccco2)C1c1ccccc1[N+](=O)[O-]` (stereo unspecified), the melting point lay in the range of 90 to 92 °C.

With `CCc1ccc(-c2ccc3c(c2)C=C(C(=O)O)CCO3)cc1`, the melting point lay in the range of 241 to 243 °C.

As to `O=C(Nc1cccnc1)N1CCN(c2cc(-c3cccc(F)c3)ncn2)CC1`, the melting point lay within 205 to 206 °C.

`Cc1ccc(Cn2[nH]c(N)cc2=O)cc1C(F)(F)F` gave a melting point of 103 °C.

In turn, `O=C(O)C(=O)CC(=O)c1cn(Cc2ccncc2)c2ccccc2c1=O` gave a melting point of over 300 °C.

With `CCOC(=O)C1CCC(=O)NC1=O` (stereo unspecified), the melting point was 69 to 74 °C.

As to `CCc1cn2c(=O)c(C(=O)O)cnc2c2ccccc12`, the melting point is 221 to 223 °C.

For the compound `Cc1nc2c(OCc3ccccc3F)cccn2c1CC#N`, the melting point lay within 172 to 173 °C.

As to `CCOC(=O)c1cc(NCc2c(C)cccc2C)c2nc(C)n(OC)c2c1`, the melting point lay in the range of 165 to 166 °C.

The compound `COC(=O)c1ccc2oc3c(c(=O)c2c1)CCC3=Cc1ccccc1C` showed a melting point of 203 to 205 °C.

In turn, `O=C(N[C@H]1CCCNC1=O)c1cc(F)cc(F)c1` showed a melting point of 198 to 199 °C.

With `O=S(=O)(F)C=CNc1ccc(C(F)(F)F)cc1`, the melting point lay within 71 to 73 °C.

In turn, `CC(C)(C)OC(=O)NCc1ccccc1` gave a melting point of 55.5 to 56.5 °C.

The compound `Cc1nc(N)nc(N)c1-c1cc(Br)ccc1Cl` showed a melting point of 212 to 216 °C.

For `N#Cc1ccc(C(=O)N[C@H]2CC[C@H](CCN3CCN(c4nccc5c4OCC5)CC3)CC2)cc1`, the melting point worked out at 262 °C.

Compound `CCCc1c(O)c(C(C)=O)cc(I)c1OCc1ccc(C(=O)O)cc1` showed a melting point of 167 to 168 °C.

Compound `CCn1c(=O)n(C)c(=O)c2c(C)onc21` yielded a melting point of 88 to 89 °C.

The compound `CC(=O)Nc1ccccc1N1CCc2cc(Cl)ccc21` returned a melting point of 136 to 138 °C.

In turn, `CN(C)CCOc1ccc2c(=O)c3ccc(OCCN(C)C)cc3oc2c1` had a melting point of 87.5 to 89 °C.

For `C(=C\c1nc(COc2ccc(CCCCn3ccnc3)cc2)co1)/c1ccccc1`, the melting point lay in the range of 103 to 104 °C.

For `CCCOc1ccc(CO)nc1Cl`, the melting point lay in the range of 59 to 60 °C.

`O=C(CCCCl)Nc1nnc(-c2ccc(Br)cc2)s1` gave a melting point of 187 to 189 °C.

Compound `Nc1ccc(F)c(-c2ccc3ncccc3c2)c1F` displayed a melting point of 178 to 179 °C.
